From patent US20160081985A1, “CENICRIVIROC COMPOSITIONS AND METHODS OF MAKING AND USING THE SAME” (Tobira Therapeutics, Inc., priority 2013, published 2016)

Key:
[1] = Disintegration behavior of tablets in approximately 250 mL water; type: physicochemical; settings: single tablet in approximately 250 mL water
[2] = Dissolution time of acid solubilizers in purified water (FBRM); type: physicochemical; settings: 200 mg acid in 90 mL purified water, 250 rpm
Procedure: The results described in Table 1 were performed by adding 200 mg of the acid to 90 mL purified water using a Mettler Toledo mixing chamber held at the specified temperature with an upward pumping four blade impeller at 250 rpm. The disappearance of particles undergoing dissolution was monitored by focused-beam reflectance measurement (FBRM). Data was analyzed by reviewing individual 2 second measurement trends as well as trends averaged over 10 and 30 seconds.

[3] = Steady-state vs single dose exposure in various other clinical trials; type: in vivo, human; settings: different formulations
[4] = humans; efavirenz as inducer of CYP3A4; cited from earlier work

Row | Dissolution time ([2]; 25° C.) [s] | Dissolution time ([2]; 37° C.) [s] | Structure (SMILES) | other results
1 | – | – | Nc1ccn([C@@H]2CS[C@H](CO)O2)c(=O)n1 [lamivudine] | Disintegration Observations (mode) [1]: Rapid; Disintegration time [1]: tion <30 seconds
2 | 4 | <2 | O=C(O)/C=C\C(=O)O [Maleic, Maleic Acid] | –
3 | 312 | 152 | O=C(O)/C=C/C(=O)O [Fumaric, Fumaric Acid] | –
4 | – | – | CCCCOCCOc1ccc(-c2ccc3c(c2)/C=C(/C(=O)Nc2ccc([S@@+]([O-])Cc4cncn4CCC)cc2)CCCN3CC(C)C)cc1 [cenicriviroc, (S,E)-8-(4-(2-Butoxyethoxy)phenyl)-1-(2-methylpropyl)-N-(4-(((1-propyl-1H-imidazol-5-yl)methyl)sulfinyl)phenyl)-1,2,3,4-tetrahydrobenzo[b]azocine-5-carboxamide] | Steady-state exposure level (AUC, day 10) relative to single dose exposure [3]: approximately 1.5 fold; Decrease of cenicriviroc plasma concentration by efavirenz [4]: approximately 2 fold
